# USRE47141E1, “Methods of treating fibrosis, cancer and vascular injuries” (EWHA University—Industry Collaboration Foundation, priority 2010, dated 2018)
# Marks after values point to notes of the source that are not given here.
# Assays:
# MMTV/c-Neu mice = assay: Anti-metastatic effect on MMTV/c-Neu mice breast cancer model; assay type: in vivo; settings: for β-casein mRNA expression level in the lung: 43.6 mg/kg intraperitoneally every other day, Example 61 three weeks, Example 3 ten weeks
# Description: Anti-metastatic Effect on MMTV/c-Neu mice breast cancer model MMTV/c-Neu female transgenic mice were purchased from Jackson Laboratory (Bar Harbor, Me., USA). Animals were maintained in a temperature-controlled SPF room (22° C.) and supplied with food and water ad libitum. In Experiment 1, Example 61 (43.6 mg/kg) dissolved in saline was given to thirty two-week-old MMTV/c-Neu mice intraperitoneally every other day for three weeks. […] Mice were sacrificed at 24 h after the last dosing, and tissues of mammary tumor and lung were analyzed by hematoxylin and eosin (H&E) staining To analyse β-casein mRNA level in tissues of mammary tumor and lung, total RNAs were isolated from these tissues using TRIzol reagent (Invitrogen Corporation) and RNeasy Mini kit (Qiagen) according to the manufacturer's instruction. The cDNAs were synthesized from 2 μg of total RNAs using random primer (Invitrogen Corporation) by MMLV RTase (Invitrogen Corporation) for 1 h at 37° C. and subjected to PCR amplification using Taq polymerase (Promega) and following gene-specific primers: mouse GAPDH (forward) 5′-[…]-3′ and (reverse) 5′-[…]-3′, mouse β-casein (forward) 5′-[…]-3′ and (reverse) 5′-[…]-3′. Amplified DNA was analyzed by agarose gel electrophoresis.
# Activity of MMP-9 and MMP-2 in the primary mammary tumor was measured by gelatin zymography. Tumor tissues from mice (30 mg) was lysed in 500 μL RIPA buffer (50 mM Tris, 150 mM NaCl, 0.1% sodium dodecyl sulfate, 0.5% sodium deoxycholate, 1% NP-40, protease inhibitor without EDTA) for 10-20 min on ice. Lysates were cleared by centrifugation at 13000 rpm at 4° C. for 10 min. Protein content of supernatants was determined using Micro-BCA protein assay kit (Thermo Scientific). Loading samples were prepared by adding loading buffer (0.5 M Tris, pH 6.8, 50% glycerol, 10% SDS, and 1% bromophenol blue solution) into lysates containing 15 μg of total protein. Loading samples were heated at 60° C. for 5 min and separated by electrophoresis on 10% polyacrylamide gel containing 0.2% gelatin. Gel was washed twice with washing buffer [2.5% Triton-X100, 0.05 M Tris-HCl, pH 7.5, and 0.1 M NaCl] for 30 min at room temperature. […] Gel image was obtained using a densitometer LAS-3000 imager (FUJIFILM) in cybergreen mode.
# [1] = tested on: bile duct-ligated (BDL) rats; assay: Anti-fibrotic effect on bile duct-ligated liver fibrosis model; assay type: in vivo; settings: for Body weight / Organ weight Liver / Organ weight Liver/Body / Organ weight Spleen / Organ weight Spleen/Body: mean ± S.E.
# [2] = tested on: BALB/c 4T1 xenografted mice; assay: Anti-metastatic effect on BALB/c 4T1 xenografted mice model; assay type: in vivo; settings: Example 3 13.6 or 27.3 mg/kg orally BID, four weeks; Example 2 5, 10, 20, or 40 mg/kg orally; Example 61 43.6 mg/kg intraperitoneally every other day, 2.5 weeks
# Description: Female BALB/c mice were purchased from Orient Bio Inc. (Seoul, Korea). Animals were maintained in a temperature-controlled room (22° C.) and supplied with food and water ad libitum. 4T1 cells (1.2×10^4 cells) were suspended in PBS and implanted into the left #4 mammary fat pad of five to six-week-old female BALB/c mice (day 0). In Experiment 1, treatment was started after tumor implantation (day 0). […] In Experiment 2, treatment was started on day 4. […] In Experiment 3, treatment was started on day 4. […] In Experiment 4, 4T1 cells (1×10^4 cells) were suspended in PBS and implanted into the left #4 mammary fat pad of ten-week-old female BALB/c mice (day 0). Treatment was started on day 10. Example 61 (43.6 mg/kg) dissolved in saline was given to mice intraperitoneally every other day for 2.5 weeks. In all Experiments, mice were sacrificed at 24 to 72 h after the last dosing, and 15% India ink solution (Hardy Diagnostics) in PBS was immediately injected into the trachea. […] Number of metastatic nodule was counted on the surface of left lobe of lung, and picture of lung was taken with digital camera. The tumor size was measured using calipers, and the tumor volume was calculated by using the following equation: Tumor volume=(0.5236)×(width)^2×(length)
# Either vehicle buffer (4 mM HCl, 1 mg/mL BSA) or TGF-β1 (50 ng/mouse) in vehicle buffer was given to mice intravenously at 2 h before mice were sacrificed. Tumor tissues from mice were lysed in RIPA buffer [50 mM Tris, pH 7.5, 150 mM NaCl, 0.1% sodium dodecyl sulfate, 0.5% sodium deoxycholate, 1% NP-40, 1 mM NaF, 1 mM Na3VO4, 1 mM PMSF, a protease inhibitor cocktail (1 tablet of Roche Diagnostics GmbH protease inhibitor cocktail/10 mL) (Roche)] for 20 min on ice. Lysates were cleared by centrifugation at 13000 rpm at 4° C. for 20 min. Protein content of supernatants was determined using Micro-BCA (bicinchoninic acid) protein assay kit (Thermo Scientific). Lysates containing 20-50 μg total protein were separated by electrophoresis on polyacrylamide gel and then electrophoretically transferred to polyvinylidene difluoride transfer membranes (Millipore, Billerica, Mass., USA). Membranes were blocked with 5% BSA (Sigma-Aldrich) in PBS containing 0.5% Tween-20 (PBST) for 1 h and incubated overnight at 4° C. with one of following antibodies: anti-phospho-Smad2 (Millipore), anti-Smad2/3 (BD Transduction Laboratories, NJ, USA), or anti-β-actin (Sigma-Aldrich) in PBST containing 1% BSA. […] Bound antibodies were detected using Western Blotting Luminol Reagent (SantaCruz Biotechnology). Band intensities were analyzed using a densitometer LAS-3000 imager (FUJIFILM, Tokyo, Japan).
# ALK5 = ALK5 (Homo sapiens (Human), UniProt P36897); assay: Cell-free assay for inhibition of ALK5 kinase phosphorylation; assay type: biochemical; settings: read-out: IC50 on ALK5 kinase phosphorylation
# Description: ALK5 protein was expressed in Sf9 insect cells as human recombinant GST-fusion protein using the baculovirus expression system. Expressed protein was purified by affinity chromatography using GSH-agarose (Sigma-Aldrich). Kinase assay was performed in 96-well FlashPlates™ from Perkin Elmer (Boston, Mass., USA) in a 50 μL reaction volume. The reaction cocktail was pipetted in four steps in the following order: 20 μL of assay buffer (standard buffer), 5 μL of ATP solution in H2O, 5 μL of each test compounds of formula (I) in 10% DMSO, 10 μL of GSK3 (14-27) (200 ng)/10 μL of ALK5 solution (1 ng) (premixed). The reaction cocktail contained 60 mM HEPES-NaOH, pH 7.5, 3 mM MgCl2, 3 mM MnCl2, 3 Na3VO4, 1.2 mM DTT, 50 μg/mL PEG20000, 1 μM [γ-^33P]-ATP (approximately 2.5×10^5 cpm per well), 200 ng/10 μL GSK3 (14-27), and 1 ng/10 μL ALK5. The reaction cocktail was incubated at 30° C. for 60 min. The reaction was stopped with 50 μL of 2% (v/v) H3PO4, and plates were aspirated and washed two times with 200 μL 0.9% (w/v) NaCl. Assay was performed with a BeckmanCoulter Biomek 2000 robotic system. Incorporation of ^33Pi (counting of “cpm”) was determined with a microplate scintillation counter (Microbeta, Wallac).
# Tramp C2 = settings: mice treated with murine prostate cancer cell line Tramp C2; cited from earlier work
# rats = settings: cited from earlier work
# UUO rats = settings: cited from earlier work
# [3] = tested on: SBE-luc and GFAP-luc mice immunized with MOG35-55; settings: cited from earlier work
# [4] = 43.6 mg/kg intraperitoneally every other day for ten weeks, gelatin zymography
# [5] = BDL rats, 21.8 mg/kg orally three times per week for four weeks
# [6] = BDL rats, 43.6 mg/kg orally three times per week for four weeks
# [7] = Sham-operated rats, 43.6 mg/kg orally three times per week for four weeks
# [8] = orally three times per week for four weeks, Example 2 5, 10, 20 mg/kg, Example 3 21.8, 43.6 mg/kg
# [9] = orally three times per week for four weeks, Western blot
# Chain of ALK5 (P36897 34-503): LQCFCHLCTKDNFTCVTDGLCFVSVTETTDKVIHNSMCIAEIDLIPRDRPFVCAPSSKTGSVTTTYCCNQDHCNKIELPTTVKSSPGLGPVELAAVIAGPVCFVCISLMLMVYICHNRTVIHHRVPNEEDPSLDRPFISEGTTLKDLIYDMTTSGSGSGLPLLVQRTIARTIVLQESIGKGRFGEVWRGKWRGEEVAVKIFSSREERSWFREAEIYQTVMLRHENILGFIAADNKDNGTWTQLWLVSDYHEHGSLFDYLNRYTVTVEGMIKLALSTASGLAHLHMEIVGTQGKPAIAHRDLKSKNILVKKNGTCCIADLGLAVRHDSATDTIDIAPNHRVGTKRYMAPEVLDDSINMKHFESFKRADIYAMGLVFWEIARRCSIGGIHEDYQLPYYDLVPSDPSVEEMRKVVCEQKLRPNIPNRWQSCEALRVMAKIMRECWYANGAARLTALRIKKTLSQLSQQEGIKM
smiles,measurement,setting,value
Cc1cccc(-c2[nH]c(CNc3ccccc3F)nc2-c2ccc3ncnn3c2)n1.Cl [Example 3],activity of MMP-2 in the primary mammary tumor,MMTV/c-Neu mice; [4],significantly inhibited
same,activity of MMP-9 in the primary mammary tumor,MMTV/c-Neu mice; [4],significantly inhibited
same,β-casein mRNA expression level in the lung,MMTV/c-Neu mice,significantly inhibited
same,Smad signaling in BDL rat liver (pSmad3),"[1]; 21.8 or 43.6 mg/kg orally three times per week for four weeks, Western blot",inhibited
same,Body weight,[1]; [5],340 ± 0.6 g
same,Organ weight Liver,[1]; [5],"16.4 ± 0.72**^,## g"
same,Organ weight Liver/Body,[1]; [5],"4.85 ± 0.26**^,## %"
same,Organ weight Spleen,[1]; [5],1.30 ± 0.07 g
same,Organ weight Spleen/Body,[1]; [5],"0.39 ± 0.03**^,## %"
same,Body weight,[1]; [6],335 ± 8.4 g
same,Organ weight Liver,[1]; [6],"16.1 ± 0.57**^,## g"
same,Organ weight Liver/Body,[1]; [6],"4.84 ± 0.26**^,## %"
same,Organ weight Spleen,[1]; [6],1.19 ± 0.09 g
same,Organ weight Spleen/Body,[1]; [6],"0.36 ± 0.03**^,## %"
same,Body weight,[1]; [7],354 ± 12.2 g
same,Organ weight Liver,[1]; [7],11.8 ± 0.71 g
same,Organ weight Liver/Body,[1]; [7],3.34 ± 0.12%
same,Organ weight Spleen,[1]; [7],0.81 ± 0.04 g
same,Organ weight Spleen/Body,[1]; [7],0.23 ± 0.01%
same,BDL-induced histological change,"[1]; liver, H&E staining",greatly abolished
same,body weight loss in BDL rats,[1]; [8],recovered
same,organ (liver and spleen) weight in BDL rats,[1]; [8],decreased
same,serum ALT in BDL rats,[1]; [8],improved
same,serum AST in BDL rats,[1]; [8],improved
same,fibronectin in BDL rat liver,[1]; [9],suppressed
same,vimentin in BDL rat liver,[1]; [9],suppressed
same,α-SMA in BDL rat liver,[1]; [9],suppressed
same,number of metastastic nodules on the lung,[2],significantly reduced
Cc1cccc(-c2[nH]c(CNc3cccc(C#N)c3)nc2-c2ccc3ncnn3c2)n1.Cl [Example 61],number of metastastic lesions in the lung,MMTV/c-Neu mice; 43.6 mg/kg intraperitoneally every other day for three weeks,significantly reduced
same,β-casein mRNA expression level in the lung,MMTV/c-Neu mice,significantly inhibited
same,number of metastastic nodules on the lung,[2],significantly reduced
"Cc1cccc(-c2[nH]c(Cc3cccc(C#N)c3)nc2-c2ccc3ncnn3c2)n1 [Example 145, 3-((4-([1,2,4]triazolo[1,5-a]pyridin-6-yl)-5-(6-methylpyridin-2-yl)-1H-imidazol-2-yl)methyl)benzonitrile]",IC50,ALK5,0.0124 µM
"Cc1cccc(-c2[nH]c(Cc3cccc(C(N)=O)c3)nc2-c2ccc3ncnn3c2)n1 [Example 147, 3-((4-([1,2,4]triazolo[1,5-a]pyridin-6-yl)-5-(6-methylpyridin-2-yl)-1H-imidazol-2-yl)methyl)benzamide]",IC50,ALK5,0.04 µM
"Cc1cccc(-c2[nH]c(COc3ccccc3)nc2-c2ccc3ncnn3c2)n1 [Example 148, 6-(5-(6-methylpyridin-2-yl)-2-(phenoxymethyl)-1H-imidazol-4-yl)-[1,2,4]triazolo[1,5-a]pyridine]",IC50,ALK5,0.0131 µM
"Cc1cccc(-c2[nH]c(COc3ccccc3F)nc2-c2ccc3ncnn3c2)n1 [Example 149, 6-(2-((2-fluorophenoxy)methyl)-5-(6-methylpyridin-2-yl)-1H-imidazol-4-yl)-[1,2,4]triazolo[1,5-a]pyridine]",IC50,ALK5,0.0254 µM
"Cc1cccc(-c2[nH]c(COc3cccc(C#N)c3)nc2-c2ccc3ncnn3c2)n1 [Example 150, 3-((4-([1,2,4]triazolo[1,5-a]pyridin-6-yl)-5-(6-methylpyridin-2-yl)-1H-imidazol-2-yl)methoxy)benzonitrile]",IC50,ALK5,0.0239 µM
"Cc1cccc(-c2[nH]c(COc3cccc(C(N)=O)c3)nc2-c2ccc3ncnn3c2)n1 [Example 151, 3-((4-([1,2,4]triazolo[1,5-a]pyridin-6-yl)-5-(6-methylpyridin-2-yl)-1H-imidazol-2-yl)methoxy)benzamide]",IC50,ALK5,0.0225 µM
"Cc1cccc(-c2[nH]c(CSc3ccccc3)nc2-c2ccc3ncnn3c2)n1 [Example 152, 6-(5-(6-methylpyridin-2-yl)-2-(phenylthiomethyl)-1H-imidazol-4-yl)-[1,2,4]triazolo[1,5-a]pyridine]",IC50,ALK5,0.0207 µM
Cc1cccc(-c2[nH]c(Cc3cccc(C(N)=O)c3)nc2-c2ccc3nccnc3c2)n1 [IN-1130],tumor volume,Tramp C2,dramatically reduces
same,penile curvature,rats,corrects
same,tunical fibrosis,rats,lessens
same,renal fibrosis induced by unilateral ureteral obstruction (UUO),UUO rats,effectively suppresses
same,experimental autoimmune encephalomyelitis (EAE),[3],ameliorates
